Laboratory results published in patent US4464354A, “(3,4-c)-Pyrido psoralens, process of preparation, application in cosmetology and therapeutics, and cosmetological and pharmaceutical composition with them” (Institut National de la Sante et de la Recherche Medicale, priority 1982, dated 1984).
“Also recorded” adds a separate entry of the source.

What was measured:
normal human skin = test: erythema test on normal human skin (forearm); type: in vivo
Protocol: The clinical and therapeutic activity of compounds 1a and 1b has been also measured on human skin. 10 mg of compounds 1a and 1b were diluted in 2 g of a purified lanolin commercially available under the name ROC hydrocerine which was made liquid by heating to 60° C. This local preparation was first tested on normal human skin (of the forearm). An amount of 10 micrograms/cm2 of products 1a and 1b was applied to a circular cutaneous surface 3 cm in diameter. The two products were left on the skin for 2 hours to insure a sufficient cutaneous penetration. […] The same experiment was repeated a second time with irradiation of 20 J/cm2 through a glass plate in order to filter out all the ultraviolet B radiation. […] This erythema, slightly apparent, continued for 18 days. […] The […] result of the reflective photoplethysmograph were totally identical for products 1a and 1b. […] The […] only appeared in doses of irradiation where are twice that customarily used in a therapeutic treatment.

[1] = test system: Saccharomyces cerevisiae yeast; test: induction of forward mutations (resistance to canavanine); type: cell-based
Protocol: This photobiological activity has in effect been defined by the induction of lethal effects, the induction of "small colony" cytoplasmic mutations (damage in the mitochondrial DNA) and the induction of nuclear mutations (reverse and forward). The experiments were conducted in the customary manner in conformity with the following references: […]

psoriatic plaque = test: therapeutic test on psoriatic plaque, products 1a and 1b; type: in vivo, human
Protocol: 10 mg of compounds 1a and 1b were diluted in 2 g of a purified lanolin commercially available under the name ROC hydrocerine which was made liquid by heating to 60° C. Products 1a and 1b have also been tested in the same excipient on a high inflammatory psoriatic plaque. These two products were applied to surfaces having a 3 cm diameter. On a third surface the excipient alone was applied. […] The products and the lanolin alone were applied 2 hours before irradiation. […] This whitening was practically as fast in the zones treated with products 1a and 1b. The zone treated with lanolin alone remained unchanged.

DNA [2] = test: formation of cross-links in DNA (general statements); type: biochemical; settings: from induction of cytoplasmic and nuclear mutations
synthesis of DNA = test: photosensitizer effect on DNA synthesis in human fibroblasts; type: cell-based; settings: UVA 365 nm
Text: (§1) (F. Bordin, F. Baccichetti and L. Musajo, Experientia 28, 148 (1972)).
(§2) The cells cultivated in Petri dishes having a minimum Eagle medium with 10% embryonic calf serum were marked by precursors which were specific to the exponential phase of growth. The rates of synthesis were estimated by measuring the incorporation of the radioactive precursors in the acid-precipitable material (see S. Nocentini, Biochim. Biophys., Acta 521, 160 (1978)).

synthesis of RNA = test: photosensitizer effect on RNA synthesis in human fibroblasts; type: cell-based; settings: UVA 365 nm
Text: as §1, §2

[3] = test system: V79 chinese hamster cells; test: antiproliferatory effect: inhibition of colony formation of V79 cells; type: cell-based; settings: 5×10^-6 M
Protocol: The photobiological activity of the two monofunctional componds 1a and 1b have been studied in mammalian cells in vitro in order to determine their antiproliferatory effect.
A diploid strain of V79 chinese hamster cells were used.
The action of the compounds on cell survival (i.e. the antiproliferatory effect) was determined by measuring their power to inhibit the capacity of cells to form colonies. The technique used is that described by C.

DNA [4] = test: thermal denaturation-renaturation of DNA modified in the presence of UVA; type: biochemical
Text: Experiments of thermal denaturation-renaturation carried out on the DNA Modified by the compound 1a in the presence of UVA (incident dose ranging up to 27 Kj/m2) yielding values of the non-renaturating fraction of 100%.

[5] = test system: haploid strain of Saccharomyces cerevisiae yeast; test: induction of nuclear mutations: His+ reversions; type: cell-based; settings: 5×10^-6 M, same survivor rate
Protocol: (§3) This photobiological activity has in effect been defined by the induction of lethal effects, the induction of "small colony" cytoplasmic mutations (damage in the mitochondrial DNA) and the induction of nuclear mutations (reverse and forward). The experiments were conducted in the customary manner in conformity with the following references:
The induction of nuclear mutations (reversions and "forward" mutations) has been determined according to procedures described in the above-mentioned articles.

DNA [6] = test: photoaffinity for DNA in vivo; type: cell-based, yeast
[7] = spectroscopic absorption properties; type: physicochemical; settings: compared with psoralen
Text: Compounds 1a and 1b have similar spectroscopic properties which differ markedly with respect to those of psoralen.

[8] = test system: DNA of cells of the wild type; test: direct biochemical verification of cross-linking in DNA of cells treated and irradiated at 365 nm; type: cell-based, yeast
Text: Indeed, DNA of cells of the wild type were extracted immediately after treatment with products 1a, 1b at a concentration of 10^-5 M and irradiation with two doses of radiation at 365 nm (30% and 5% survival rate). […] If the DNA contains cross-links it renatures itself and is found in the double chain form separable by gradient density from single chain DNA.

[9] = mutagenicity (general statements)
[10] = photochemical stability under ultraviolet irradiation; type: physicochemical; settings: free in solution, ultraviolet irradiation up to an incident dose of 27 kJ/m2
[11] = test system: Saccharomyces cerevisiae yeast; test: induction of lethal effects in yeast with 365 nm irradiation (UVA); type: cell-based
Protocol: as §3
Thus, the dose of UVA must be between 2.5 and 5 times weaker in the case of compounds 1a and 1b than in the case of 8-MOP to attain the same survival rate.

yeast mutant pso2 = test: sensitivity of yeast mutant pso2 versus wild type to photo-addition
normal skin = test: pigmentogenic properties on normal skin; type: in vivo, human; settings: 0.5%
Text: The pigmentogenic properties of products 1a and 1b have been tested on normal skin at a concentration of 0.5%.

mitochondrial DNA = test: induction of "small colony" cytoplasmic mutations; type: cell-based, Saccharomyces cerevisiae; settings: in 10% of the survivors
Protocol: as §3
If the induction of cytoplasmic mutations is considered as a function of the survivors, the compounds 1a and 1b which are monofunctional derivatives of psoralen, show in 10% of the survivors a rate of induction of cytoplasmic mutation greater than 50%.

DNA [12] = test: complexation with DNA by absorption and emission spectroscopy; type: binding
[13] = 10 micrograms/cm2, UVA 20 J/cm2
[14] = 30 micrograms/cm2, by the tenth treatment
[15] = 30 micrograms/cm2, from the fourth treatment

O=c1oc2cc3occc3cc2c2ccncc12 [Compound 1a, Pyrido (3,4-c) furo (3,2-g) coumarin]
erythema at 5 J/cm2 (normal human skin; 10 micrograms/cm2, 2 hours before UVA 5 J/cm2): no precocious or delayed erythema was observed
duration of erythema (normal human skin; [13]): 18 days
time of appearance of erythema (normal human skin; [13]): 72 h
erythema at 20 J/cm2 (normal human skin; 10 micrograms/cm2, UVA 20 J/cm2 through glass plate): slight erythema
desquamation or local pain (normal human skin; UVA 20 J/cm2): no desquamation or local pain
systolic pulse of the capillaries at erythematic zones (reflective photoplethysmography) (normal human skin; UVA 20 J/cm2): doubling of the systolic pulse
erythematogenicity (conclusion) (normal human skin; in vivo): not erythmatogenic in conditions of irradiation customarily used in human therapy; also recorded: very mildly erythmatogenic
forward mutations as a function of surviving fractions compared with 3-CPs, 8-MOP and 4,5',8-TMeP [1]: markedly less mutagenic than 3-CPs and the bifunctional compounds 8-MOP and 4,5', 8-TMeP
forward mutations as a function of UVA doses compared with 3-CPs ([1]; 5×10^-6 M versus 3-CPs at 5×10^-5 M): comparable to those obtained with 3-CPs at 5×10^-5 M
antipsoriatic action, third patient (psoriatic plaque; 30 μg/cm2 two hours before UVA): did not have a detectable antipsoriatic action
erythema or secondary effect during treatments (psoriatic plaque; 30 micrograms/cm2): no erythema or secondary effect was observed
hyperpigmentation (psoriatic plaque; 30 micrograms/cm2): hyperpigmentation was found
total UVA dose to complete whitening (psoriatic plaque; [14]): 50 J/cm2
whitening of treated zones (psoriatic plaque; [14]): complete whitening of the zones treated
decrease of squamae (psoriatic plaque; [15]): slight decrease of the squamae
reduction of infiltration (psoriatic plaque; [15]): tangible reduction of the infiltration
antipsoriatic activity (conclusion) (psoriatic plaque; applied locally): good antipsoriatic activity
formation of cross-links in the DNA (conclusion) (DNA [2]): incapable of forming cross-links in the DNA
inhibition capacity (DNA) compared with 3-CPs (synthesis of DNA): much more than 3-CPs
inhibition capacity (DNA) compared with 8-MOP (synthesis of DNA): slightly more powerful than 8-MOP
inhibition capacity (RNA) compared with 3-CPs (synthesis of RNA): much more than 3-CPs
inhibition capacity (RNA) compared with 8-MOP (synthesis of RNA): slightly more powerful than 8-MOP
LD10 (dose which leaves 10% survive) ([3]; UVA): 1800 J/cm2
considerable photosensitivity in V79 cells ([3]; UVA): considerable photosensitivity
relative antiproliferatory effect ([3]; UVA): compared to 8-MOP, a higher antiproliferatory effect; also recorded: comparable to that of bifunctional furocoumarins
diminution of cell survival in absence of radiation ([3]; no radiation): no diminution of cell survival
induction of biadditions on the DNA (DNA [4]): cannot induce biadditions on the DNA
non-renaturating fraction (DNA [4]; UVA incident dose ranging up to 27 kJ/m2): 100%
His+ reversions rate compared with 3-CPs [5]: less than that observed after the treatment with 3-CPs
His+ reversions rate compared with 8-MOP and 4,5',8-TMeP [5]: very much less than that observed after treatment with the bifunctional agents 8-MOP and 4,5', 8-TMeP
photoaffinity for DNA in vivo compared with 3-CPs (DNA [6]): makedly much high than that of monofunctional furocoumarin 3-CPs
photoaffinity for DNA in vivo relative to 8-MOP (DNA [6]): about 10 times
photoaffinity in respect to DNA compared with 8-MOP (conclusion) (DNA [6]): markedly greater than that of 8-MOP
coefficient of molecular absorption at 365 nm [7]: notably a higher coefficient of molecular absorption at 365 nm
form of DNA after renaturation (cross-links) ([8]; 10^-5 M, 365 nm, two doses (30% and 5% survival rate)): remains in single chain form after renaturation
functional type (mono/bifunctional) ([8]; pso2 mutant and direct examination of DNA): mono functional type
mutagenicity compared with 3-carbethoxypsoralen (conclusion) [9]: less mutagenic than 3-carbethoxypsoralen
photochemical stability [10]: good photochemical stability
photoreactivity compared with 4,5',8-trimethylpsoralen (conclusion) [11]: close to that of 4,5'-8-trimethylpsoralen
induction of lethal effects compared with 8-MOP ([11]; 5×10^-5 M, 365 nm (UVA)): activity close to that of 8-methoxypsoralen
activity on cell survival relative to 8-MOP ([11]; 5×10^-6 M, survival curves): 2.5 times
photodynamic activity (oxygen dependent) on induction of lethal damages ([11]; yeast): do not exert on the yeast photodynamic activity
photoreactivity on yeast strains (yeast mutant pso2): very photoreactive
sensitivity of pso2 mutant compared with wild type (yeast mutant pso2; photo-addition): same sensitivity as the wild type
pigmentogenic properties, 1b versus 1a (normal skin): pigmentogenic
pigmentation of normal skin (normal skin; three normal patients, total UVA doses of 140 J/cm2): very slight pigmentation, hardly visible, in only two of the three patients
rate of induction of cytoplasmic mutation (mitochondrial DNA): greater than 50%
complexation with DNA (DNA [12]): considerable complexation
solubility in the DNA relative to mixture of alcohol and water (DNA [12]): at least 10 factor
